Measured values from patent US6303619A, “Meta-substituted acidic 8-phenylxanthine antagonists of A3 human adenosine receptors” (priority 1998, dated 2001).
Values belong to the compound of their own block, whether it stands above or below them.

Key:
[1] = target: T1, human A3 adenosine receptor (Homo sapiens, UniProt P0DMS8); assay: inhibition of forskolin-stimulated cAMP accumulation in stably transfected CHO cells expressing the human A3 receptor; type: cell-based
T1 construct: clone HS-21a contained the complete open reading frame corresponding to the human homolog of the rat A3 adenosine receptor; expressed in transfected cells; host or cells: CHO cells stably transfected with HS-21a cDNA
T1 sequence (P0DMS8 1-318): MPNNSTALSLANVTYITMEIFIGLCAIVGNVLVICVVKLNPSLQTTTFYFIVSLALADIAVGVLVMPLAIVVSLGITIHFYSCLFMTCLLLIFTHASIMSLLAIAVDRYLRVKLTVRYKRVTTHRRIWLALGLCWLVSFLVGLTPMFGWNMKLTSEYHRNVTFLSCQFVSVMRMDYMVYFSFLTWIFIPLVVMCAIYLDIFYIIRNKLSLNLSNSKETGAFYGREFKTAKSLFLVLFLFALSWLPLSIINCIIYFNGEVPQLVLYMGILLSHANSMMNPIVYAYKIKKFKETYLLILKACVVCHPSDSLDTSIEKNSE
Method: The human A3 adenosine receptor from a striatal cDNA library can be cloned using a probe derived from the homologous rat sequence.
cAMP Accumulation in Stable CHO Cell Lines
The changes in cAMP accumulation can alternatively be measured in stably transfected CHO cells expressing the human adenosine receptor subtypes. CHO cells are washed twice in phosphate buffered saline (PBS) and detached in 0.2% EDTA in PBS. The cells are pelleted at 800 rpm for 10 min and resuspended in KRH buffer (140 mM NaCl/5 mM KCl/2 mM CaCl2 /1.2 mM MgSO4 /1.2 mM KH2 PO4 /6 mM glucose/25 mM Hepes buffer, pH 7.4). The cells are washed once in KRH buffer and resuspended at 10^7 cells/mL. The cell suspension (100 μl) is mixed with 100 μl of KRH buffer containing 200 uM Ro 20-1724 and incubated at 37° C. for 10 minutes. Adenosine (10 uM) was added in 200 μl KRH buffer containing 200 uM Ro 20-1724 and incubated at 37° C. for 20 minutes. After the incubation, 400 μl of 0.5 mM NaOAc (pH 6.2) was added and the sample was boiled for 20 minutes. The supernatant was recovered by centrifugation for 15 minutes and stored at -70° C. cAMP levels were determined by radiommunoassay (RIANEN kit, DuPont/NEN) using the to acetylation protocol. The effect of antagonists on cAMP accumulation are measured by preincubation for 20 minutes before adding adenosine.

A3 adenosine receptor = assay: mast cell degranulation in an animal model; type: in vivo
Excerpt: (§1) The release of enzymes, bioactive amines and arachidonic acid metabolites following mast cell activation causes vasoconstriction, edema, leukocyte accumulation, and ultimately, tissue damage. Mast cell degranulation is a component of myocardian reperfusion injury, hypersensitivity reactions (asthma, allergic rhinitis, and urticaria), ischemic bowel disease, autoimmune inflammation, and atopic dermatitis. Selective A3 adenosine receptor antagonists can be used to treat or prevent these diseases and pathologic effects that result from mast cell degranulation.
as §1, with “of: myocardial” for “of myocardian”, “inflammations, 20” for “inflammation,”, “The present invention relates to the use of highly specific meta-substituted 8-phenylxanthine” for “Selective”, “antagonists” for “antagonists can be used”

[2] = test system: mast cells isolated from rat peritoneum; conditions: cited from earlier work
[3] = test system: hamster cheek pouch anerioles; assay: vasoconstriction of hamster cheek pouch arterioles
Excerpt: The constrictor response has classically been attributed to A1 adenosine receptor stimulation or interactions with the renin-angiotensin system. […] In the present invention, specific blockade of the A3 subtype of the adenosine receptor by a meta-substitutedphenylxanthine is effective to block the vasoconstrictive response induced through adenosine activation of this receptor subtype. The use of a meta-substituted phenylxanthine specific inhibitor of the A3 adenosine receptor subtype is effective to inhibit effects induced by adenosine mediated mast cell degranulation, and that disease states including but not limited to myocardial ischemia (Ito et al., Am. J. Physiol. 264 (Heart Circ. Physiol. 33):H I 346-H 1354, 1993), mastcell-dependent inflammation (Raud, J., Acta. Physiol. Scand. 135 (Suppl '578):I-58, 1989), brain arteriole diameter constriction (Rosenblum, W. I., Brain Res. 49:75-82, 1973), and the release of allergic mediators (Ramkumar et al., J. Biol. Chem. 268:16887-16890, 1993), are all amenable to prevention and treatment by contacting A3 receptor bearing mast cells with an amount of a meta-substituted phenylxanthine selective A3 inhibitor effective to prevent mast cell degranulation.

asthmatics = conditions: not nonasthmatics; cited from earlier work
[4] = test system: sheep A3 adenosine receptor; conditions: cited from earlier work
[5] = target: T1, human A3 adenosine receptor; assay: 125I-ABA binding to membranes of stably transfected CHO cells expressing the human A3 adenosine receptor (HS-21a); conditions: 1 mM nonradioactive I-ABA
[6] = test system: non-transfected CHO cells; assay: 125I-ABA binding to membranes from non-transfected CHO cells
Method: Membranes were prepared from stable CHO cell lines in 10 mM Hepes, pH 7.4 containing 0.1 mM benzamidine and 0.1 mM PMSF as described (Mahan, L. C. et al., (1991) Mol. Pharinacol. 40, 1-7). Pellets were resuspended in 5 mM Hepes, pH 7.4/5 mM MgCl2 /0.1 mM benzarnidine/0.1 mM PMSF at a protein concentration of 1-2 mg/mL and were incubated with adenosine deaminase (Boehringer Mannheim), 2 U/mL at 37° C. for 20 minutes. Saturation binding of ^125 I-ABA was carried out on 50 μg of membranes for 120 minutes at 25° C. in a total volume of 100 μl. […] Nonspecific binding was measured in the presence of 1 uM I-ABA. The KD and Bmax values were calculated by the EBDA program (McPherson, G. A. (1983) Computer Programs for Biomedicine 17, 107-114). Competition binding of agonists and antagonists was determined with ^125 I-ABA (0.17-2.0 nM, 2000 Ci/mmol). […] Binding data were analyzed and competition curves were constructed by use of the nonlinear regression curve fitting program Graph PAD InPlot, Version 3.0 (Graph Pad Software, San Diego). Ki values were calculated using the Cheng-Prusoff derivation (Cheng, Y. C. and Prusoff, H. R. (1973) Biochem. Pharmacol. 22, 3099-3108.).
The binding properties of the receptor encoded b HS-21a were evaluated on membranes prepared from CHO cells stably expressing the HS-21a cDNA. […]

[7] = target: T1, human A3 adenosine receptor; assay: 125I-ABA binding to membranes of stably transfected CHO cells expressing the human A3 adenosine receptor (HS-21a)
Method: Membranes were prepared from transiently transfected COS7 cells […] after transfection or from G418-selected stably transfected CHO or HEK 293 cells. Cells were harvested in 1 mM EDTA in phosphate buffered saline and centrifuged at 2000×g for 10 minutes. The cell pellet was washed once with phosphate buffered saline. The cell pellet was resuspended in 2 mL of 5 mM Tris, pH 7.6/5mM MgCl2. Membranes were prepared from the cells by freeze-thaw lysis in which the suspension was frozen in a dry ice/ethanol bath and thawed at 25° C. twice. The suspension was homogenized after adding an additional 2 mL of 5 mM Tris, pH 7.6/5 mM MgCl2, in a glass dounce homogenizer with 20 strokes. The membranes were pelleted at 40,000×g at 4° C. for 20 minutes. The membrane pellet was resuspended at a protein concentration of 1-2 mg/mL in binding assay buffer, 50 mM Tris, pH 7.6/10 mM MgCl2. Protein concentration was determined by the method of Bradford ((1976) Anal. Biochem. 72: 248-250). […] Saturation binding of [^125 I]-N^6 -aminiobenizyladenosine (125I-ABA) or [^125 I]-N^6 -2-(4-amino-3-iodophenyl)ethyladenosine (APNEA) was performed on membranes prepared from pSVLA3 transfected COS7 cells. Membranes (100 μg) were incubated in the presence of 0.2 U/mL adenosine deaminase with increasing concentrations of ^125 I-ABA in the range of 0.1-30 nM for 120 minutes at 25° C. in a total volume of 500 μl. The binding assay was terminated by rapid filtration and three washes with ice-cold 50 mM Tris, pH 7.6/10 mM MgCl2 on a Skatron cell harvester equipped with a receptor binding flitermat (SKATRON INSTRUMENTS, INC). Non-specific binding was determined on non-transfected cells. Bound radioactivity was measured by scintillation counting in Ready Safe Scintillation Cocktail (BECKMAN).
The 1.7 kb HS-21a cDNA (A3) was subcloned as a SalI-BamHl fragment into the expression vector pCMV5 (Mumby, S. M., Heukeroth, R. O., Gordon, J. I. and Gilman, A. G. (1990) Proc. Natl. Acad. Sci. USA 87, 728-732.) creating the vector pCMV5-A3. CHO or HEK 293 cells stably expressing the human HS-21 a cDNA were prepared by co-transfection of 15 μg pCMV5-A3 and 1 μg pWLneo (Stratagene) using the calcium phosphate method. Stable cell lines were also generated using EBV based mammalian expression vectors, pREP (INVITROGEN). Neomycin resistant colonies were selected in 1 mg/mL G418 (GIBCO). Stable colonies were screened for expression of HS-21a by ^125 I-ABA binding.
Membranes were prepared from stable CHO cell lines in 10 mM Hepes, pH 7.4 containing 0.1 mM benzamidine and 0.1 mM PMSF as described (Mahan, L. C. et al., (1991) Mol. Pharinacol. 40, 1-7). Pellets were resuspended in 5 mM Hepes, pH 7.4/5 mM MgCl2 /0.1 mM benzarnidine/0.1 mM PMSF at a protein concentration of 1-2 mg/mL and were incubated with adenosine deaminase (Boehringer Mannheim), 2 U/mL at 37° C. for 20 minutes. Saturation binding of ^125 I-ABA was carried out on 50 μg of membranes for 120 minutes at 25° C. in a total volume of 100 μl. The assay was terminated by rapid filtration and three washes with ice-cold binding buffer on a Skatron harvester equipped with a receptor binding filtermat (Skatron Instruments, Inc.). The specific activity of ^125 I-ABA, initially 2,200 Ci/mmol, was reduced to 100 Ci/mmol with nonradioactive I-ABA for saturation analysis. Nonspecific binding was measured in the presence of 1 uM I-ABA. The KD and Bmax values were calculated by the EBDA program (McPherson, G. A. (1983) Computer Programs for Biomedicine 17, 107-114). Competition binding of agonists and antagonists was determined with ^125 I-ABA (0.17-2.0 nM, 2000 Ci/mmol). […] Binding data were analyzed and competition curves were constructed by use of the nonlinear regression curve fitting program Graph PAD InPlot, Version 3.0 (Graph Pad Software, San Diego).

[8] = 125I-ABA saturation binding, HS-21a stable CHO cell membranes

SMILES: Nc1ncnc2c1ncn2[C@@H]1O[C@H](CO)[C@@H](O)[C@H]1O [Adenosine, adenosine]
- inhibition of forskolin-stimulated cAMP accumulation ([1]; stably transfected CHO cells, human A3): 30-40%
- induction of mast cell degranulation (A3 adenosine receptor): induce mast cell degranulation
- release of granule contents [2]: potentiates the release of granule contents
- vasoconstrictor action [3]: vasoconstrictor action
- bronchoconstriction (asthmatics): produces bronchoconstriction in asthmatics but not in nonasthmatics

- agonist character (partial agonist) ([1]; human A3, stably transfected CHO cells): partial agonist
- prevention of specific binding of 125I-ABA [5]: prevented
SMILES: Nc1ccc(CNc2ncnc3c2ncn3[C@@H]2O[C@H](CO)[C@@H](O)[C@H]2O)cc1I [I-ABA]
- agonist affinity order [4]: I-ABA>APNEA>NECA≥R-PIA>>CPA

- Bmax [7, 8]: 258 fmol/mg protein
- Hill coefficient [7, 8]: 0.99
- agonist activity inferred from effect of uncoupling reagents on binding ([7]; HS-21a in stable CHO cell line): exhibits some agonist activity
SMILES: Nc1ccc(CNc2ncnc3c2ncn3[C@@H]2O[C@H](CO)[C@@H](O)[C@H]2O)cc1[125I] [^125 I-ABA, N^6-(4-amino-3^125 iodobenzyl)adenosine]
- specific binding to non-transfected cells [6]: No specific binding
- binding / affinity of ligands in words [4]: binds
